# Laboratory results taken from ChEMBL document CHEMBL1125222, “Activity of N6-substituted 2-chloroadenosines at A1 and A2 adenosine receptors” (J Med Chem, 1991).
# What was measured:
# Adenosine receptor A1 [1] = molecular target: T1, Adenosine receptor A1 (Rattus norvegicus, UniProt P25099); test: Inhibition of [3H]- (R)-P1A binding to adenosine A1 receptor
# T1 sequence (P25099 whole entry): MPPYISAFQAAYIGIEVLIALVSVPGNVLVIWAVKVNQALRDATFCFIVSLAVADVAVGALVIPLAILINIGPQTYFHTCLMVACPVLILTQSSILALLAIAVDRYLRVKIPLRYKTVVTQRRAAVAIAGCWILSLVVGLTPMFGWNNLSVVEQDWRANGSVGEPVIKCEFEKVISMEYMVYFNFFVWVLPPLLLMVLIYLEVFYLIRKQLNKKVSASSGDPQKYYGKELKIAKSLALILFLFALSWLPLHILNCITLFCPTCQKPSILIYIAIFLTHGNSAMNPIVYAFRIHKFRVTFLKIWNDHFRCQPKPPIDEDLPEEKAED
# [2] = Concentration required to increase Adenosine A2A receptor mediated P12 Adenylate cyclase activity; assay type: functional, Rattus norvegicus
# Adenosine receptor A1 [3] = molecular target: T1, Adenosine receptor A1
# Adenosine A2 receptor = Adenosine A2 receptor (Rattus norvegicus, UniProt P29276+P30543); test: Inhibition of [3H]- NECA binding to adenosine receptor A2; assay type: protein assay
# [4] = Effective concentration against A2AR mediated P12 adenylatencyclase activity; assay type: functional, Rattus norvegicus
Compound,Ki (Adenosine receptor A1 [1]) [nM],EC50 [2] [nM],Ki (Adenosine receptor A1 [3]) [nM],Ki (Adenosine A2 receptor) [nM],EC50 [4] [nM]
Nc1ncnc2c1ncn2[C@@H]1O[C@H](CO)[C@@H](O)[C@H]1O [ADENOSINE],,150,,,
OC[C@H]1O[C@@H](n2cnc3c(NC4CCCC4)ncnc32)[C@H](O)[C@@H]1O [N6-CYCLOPENTYLADENOSINE],,,,510,3200
OC[C@H]1O[C@@H](n2cnc3c(NC4CCCC4)nc(Cl)nc32)[C@H](O)[C@@H]1O,,,,,730
C[C@H](Cc1ccccc1)Nc1ncnc2c1ncn2[C@@H]1O[C@H](CO)[C@@H](O)[C@H]1O [(R)-PIA],,,,,980

# Further lines, results first:
Ki (Adenosine receptor A1 [1]) [nM],EC50 [2] [nM],Ki (Adenosine receptor A1 [3]) [nM],Ki (Adenosine A2 receptor) [nM],EC50 [4] [nM],Compound
6.7,460,,,,Nc1nc(Cl)nc2c1ncn2[C@@H]1O[C@H](CO)[C@@H](O)[C@H]1O
,,16,1200,3100,OC[C@H]1O[C@@H](n2cnc3c(Nc4ccccc4)ncnc32)[C@H](O)[C@@H]1O [N6-PHENYLADENOSINE]
,,7.6,1700,1600,OC[C@H]1OC(n2cnc3c(Nc4ccccc4)nc(Cl)nc32)[C@H](O)[C@@H]1O (stereo not given in full)
,,20,3000,3000,C[C@@H](Cc1ccccc1)Nc1nc(Cl)nc2c1ncn2[C@@H]1O[C@H](CO)[C@@H](O)[C@H]1O
,4200,,,,C[C@@H](Cc1ccccc1)Nc1ncnc2c1ncn2[C@@H]1O[C@H](CO)[C@@H](O)[C@H]1O [(S)-PIA]
,,1.4,220,320,C[C@H](Cc1ccccc1)Nc1nc(Cl)nc2c1ncn2[C@@H]1O[C@H](CO)[C@@H](O)[C@H]1O
